Experimental data as given in patent publication US20240196897A1, “METHOD FOR CONTROLLING DISEASE-TRANSMITTING INSECTS USING CONDENSED HETEROCYCLIC COMPOUND” (SUMITOMO CHEMICAL COMPANY, LIMITED, priority 2021, published 2024).

These compounds were tested on German cockroaches (Blattella germanica) (assay: Aerosol spray test on adult German cockroaches, moribund and mortal rates). Conditions: aerosol per Formulation Example 2 (0.1 part compound); spray time 1.35 seconds, spray amount about 800 mg, from height 50 cm; ten adults; one day after spraying.
Assay type: in vivo
Method: (§1) The internal pressure of the container at 20° C. of the aerosols thus fabricated was 0.5 MPa, the spray amount was 3 g/5 seconds, and the representative particle size (XR value) was 14 to 15 μm.
In a plastic container (diameter: 12.4 cm, height: 10.2 cm), ten adult German cockroaches (Blattella germanica) (five males and five females each) were released, and the plastic container was placed in the center of the bottom of a cylindrical chamber of 17.2 cm in diameter. From the height of 50 cm, the aerosol containing each compound listed in Table 2 which was fabricated according to the method mentioned in Formulation Example 2 was sprayed with a spray time of 1.35 seconds and a spray amount of about 800 mg. After a lapse of one day from spraying, the number of dead and moribund individuals was examined, and moribund and mortal rates (%) were determined by the equation 1 below. Dead individuals are completely immobile individuals, and moribund individuals are individuals who cannot get up when turned on their backs.
Moribund and mortal rates (%)={(number of dead individuals+number of moribund individuals)/number of tested individuals}×100 (Equation 1)

Structure (SMILES) | Moribund and mortal rates (%) after one day [%]
CCS(=O)(=O)c1cc(C(F)(F)F)cnc1-c1nc2cc([S+]([O-])C(F)(F)F)ccc2o1 (stereo not drawn) [Comparative compound 1] | 30
CCS(=O)(=O)c1cc(C(F)(F)F)cnc1-c1nc2cc(S(=O)(=O)C(F)(F)F)ccc2o1 [Comparative compound 2] | 30
CCS(=O)(=O)c1cc(C)cnc1-c1nc2cc([S+]([O-])C(F)(F)F)ccc2o1 (stereo not drawn) [Comparative compound 3] | 30
CCS(=O)(=O)c1cc(C)cnc1-c1nc2cc(S(=O)(=O)C(F)(F)F)ccc2o1 [Comparative compound 4] | 15
CCS(=O)(=O)c1cc(C2CC2)cnc1-c1nc2cc([S+]([O-])C(F)(F)F)ccc2o1 (stereo not drawn) [Present compound A] | 100
CCS(=O)(=O)c1cc(C2CC2)cnc1-c1nc2cc(S(=O)(=O)C(F)(F)F)ccc2o1 [Present compound B] | 100

These compounds were tested on Argentine worker ants (Linepithema humile) (assay: Aerosol spray test on adult Argentine worker ants, moribund and mortal rates). Conditions: spray amount 200 mg; aerosol per Formulation Example 2 (0.1 part compound); from height 60 cm; ten adult workers; seven days after spraying.
Assay type: in vivo
Method: as §1
In a plastic container (diameter: 10 cm, height: 4.5 cm) lined with a filter paper (diameter: 8.2 cm), ten adult Argentine worker ants (Linepithema humile) were released, and the plastic container was placed in the center of the bottom of a cylindrical chamber of 17.2 cm in diameter. From the height of 60 cm, the aerosol containing each compound listed in Table 2 which was fabricated according to the method mentioned in Formulation Example 2 was sprayed with a spray time of 0.34 second or 0.68 second and a spray amount of about 400 mg or 200 mg. After a lapse of seven days from spraying, the number of dead and moribund individuals was examined, and moribund and mortal rates (%) were determined by the equation 2 below. Dead individuals are completely immobile individuals, and moribund individuals are individuals who cannot get up when turned on their backs.
Moribund and mortal rates (%)={(number of dead individuals+number of moribund individuals)/number of tested individuals}×100 (Equation 2)

Structure (SMILES) | Moribund and mortal rates (%) after seven days [%]
CCS(=O)(=O)c1cc(C(F)(F)F)cnc1-c1nc2cc([S+]([O-])C(F)(F)F)ccc2o1 (stereo not drawn) [Comparative compound 1] | 10
CCS(=O)(=O)c1cc(C(F)(F)F)cnc1-c1nc2cc(S(=O)(=O)C(F)(F)F)ccc2o1 [Comparative compound 2] | 13
CCS(=O)(=O)c1cc(C)cnc1-c1nc2cc([S+]([O-])C(F)(F)F)ccc2o1 (stereo not drawn) [Comparative compound 3] | 3
CCS(=O)(=O)c1cc(C)cnc1-c1nc2cc(S(=O)(=O)C(F)(F)F)ccc2o1 [Comparative compound 4] | 10
CCS(=O)(=O)c1cc(C2CC2)cnc1-c1nc2cc([S+]([O-])C(F)(F)F)ccc2o1 (stereo not drawn) [Present compound A] | 100
CCS(=O)(=O)c1cc(C2CC2)cnc1-c1nc2cc(S(=O)(=O)C(F)(F)F)ccc2o1 [Present compound B] | 100

Same assay, conditions: spray amount 400 mg; aerosol per Formulation Example 2 (0.1 part compound); from height 60 cm; ten adult workers; seven days after spraying

Structure (SMILES) | Moribund and mortal rates (%) after seven days [%]
CCS(=O)(=O)c1cc(C(F)(F)F)cnc1-c1nc2cc([S+]([O-])C(F)(F)F)ccc2o1 (stereo not drawn) [Comparative compound 1] | 100
CCS(=O)(=O)c1cc(C(F)(F)F)cnc1-c1nc2cc(S(=O)(=O)C(F)(F)F)ccc2o1 [Comparative compound 2] | 100
CCS(=O)(=O)c1cc(C)cnc1-c1nc2cc([S+]([O-])C(F)(F)F)ccc2o1 (stereo not drawn) [Comparative compound 3] | 100
CCS(=O)(=O)c1cc(C)cnc1-c1nc2cc(S(=O)(=O)C(F)(F)F)ccc2o1 [Comparative compound 4] | 100
CCS(=O)(=O)c1cc(C2CC2)cnc1-c1nc2cc([S+]([O-])C(F)(F)F)ccc2o1 (stereo not drawn) [Present compound A] | 100
CCS(=O)(=O)c1cc(C2CC2)cnc1-c1nc2cc(S(=O)(=O)C(F)(F)F)ccc2o1 [Present compound B] | 100
